For data set [1], the system named is Mus musculus. The data set is described as follows: Induction of sedation-hypnotic activity in Mus musculus Albino Swiss (mouse) assessed as reduction in locomotor activity at 5 mg/kg, po measured after 3 hr by actophotometer. The class given is organism-based. Also noted: dose 5 mg/kg, route oral; scale not given: the % may be the effect or the level left. Conditions: in vivo.

In data set [2] the test system is Cavia porcellus. As to the kind of experiment: In vivo H1-antihistaminic activity in conscious Cavia porcellus Dunkin-Hartley (guinea pig) assessed as protection against histamine-induced bronchospasm at 10 mg/kg, po. The class given is functional.
The subject of data set [3] is Mus musculus. The data set is described as follows: Induction of sedation-hypnotic activity in Mus musculus Albino Swiss (mouse) assessed as reduction in locomotor activity at 5 mg/kg, po measured after 0.5 hr by actophotometer. The class given is organism-based. Also noted: dose 5 mg/kg, route oral; scale not given: the % may be the effect or the level left. The settings on record: in vivo.

Data set [4] deals with Cavia porcellus. The data set is described as follows: In vivo H1-antihistaminic activity in Cavia porcellus Dunkin-Hartley (guinea pig) assessed as time of onset of convulsion at 10 mg/kg, po. The class given is functional.
Data set [5] deals with Mus musculus. As to the kind of experiment: Induction of sedation-hypnotic activity in Mus musculus Albino Swiss (mouse) assessed as reduction in locomotor activity at 5 mg/kg, po measured after 2 hr by actophotometer. Format: organism-based. Further details: dose 5 mg/kg, route oral; scale not given: the % may be the effect or the level left. The settings on record: in vivo.

Data set [6] concerns Mus musculus. The data set is described as follows: Induction of sedation-hypnotic activity in Mus musculus Albino Swiss (mouse) assessed as reduction in locomotor activity at 5 mg/kg, po measured after 1 hr by actophotometer. The class given is organism-based. Further details: dose 5 mg/kg, route oral; scale not given: the % may be the effect or the level left. The settings on record: in vivo.

Data set [7] deals with Cavia porcellus. The data set is described as follows: In vivo H1-antihistaminic activity in Cavia porcellus Dunkin-Hartley (guinea pig) assessed as time of onset of convulsion at 25 mg/kg, ip. The settings on record: route intraperitoneal. The class given is functional.
Data set [8] has as its system Cavia porcellus. The data set is described as follows: In vivo H1-antihistaminic activity in conscious Cavia porcellus Dunkin-Hartley (guinea pig) assessed as protection against histamine-induced bronchospasm at 25 mg/kg, ip. The class given is functional. The settings on record: route intraperitoneal.

Among the data in ChEMBL document CHEMBL3046520, “Synthesis of novel 2-phenyl-3-[2-(substituted amino) ethylamino] quinazolin-4(3H)-ones as a new class of H1-antihistaminic agents” (Med Chem Res, 2013) are Activity and Time values, retold here.

SMILES strings stand for the structures.

In the case of `O=c1c2ccccc2nc(-c2ccccc2)n1NCCNc1ccccc1`, the Activity in the data set on Mus musculus [1] was 10.11%; in the data set with Cavia porcellus [2] it was 71.64%; with Mus musculus [3] it was 11.32%; in the data set on Mus musculus [5], 12.32%; with Mus musculus [6], 11.55%. Also, the Time in the data set on Cavia porcellus [4] is reported as 402 s.

On to `O=c1c2ccccc2nc(-c2ccccc2)n1NCCNc1ccc(Cl)cc1`, for which the Activity in the data set with Mus musculus [1] was 6.48%; in the data set with Cavia porcellus [2] it was 72.12%; with Mus musculus [3] it was 8.28%; with Mus musculus [5], 10.73%; with Mus musculus [6], 9.42%. For the same compound, in the data set on Cavia porcellus [4], the Time is listed as 416 s.

`O=c1c2ccccc2nc(-c2ccccc2)n1NCCN1CCNCC1`: the Activity with Mus musculus [1] is given as 8.21%; in the data set on Cavia porcellus [2], 73.67%; in the data set on Mus musculus [3], 9.35%; in the data set with Mus musculus [5], 10.79%; with Mus musculus [6], 10.42%. In addition, the Time in the data set on Cavia porcellus [4] was determined as 433 s.

`O=c1c2ccccc2nc(-c2ccccc2)n1NCCNCc1ccccc1`: the Activity was 8.9% with Mus musculus [1]; 68.85% in the data set with Cavia porcellus [2]; 10.42% in the data set on Mus musculus [3]; 12.31% with Mus musculus [5]; 11.52% in the data set with Mus musculus [6]. For the same compound, the Time in the data set with Cavia porcellus [4] came out at 366 s.

As for `O=c1c2ccccc2nc(-c2ccccc2)n1NCCN1CCOCC1`, the Activity in the data set on Mus musculus [1] amounted to 7.32%; with Cavia porcellus [2] it was 73.36%; in the data set on Mus musculus [3], 8.43%; in the data set on Mus musculus [5] it was 10.41%; with Mus musculus [6] it was 9.32%. Besides, the Time in the data set with Cavia porcellus [4] is listed as 428 s.

In the case of `COc1ccc(NCCNn2c(-c3ccccc3)nc3ccccc3c2=O)cc1`, the Activity is listed as 8.53% in the data set with Mus musculus [1]; 71.35% in the data set on Cavia porcellus [2]; 9.03% in the data set with Mus musculus [3]; 10.94% in the data set on Mus musculus [5]; 10.43% with Mus musculus [6]. Besides, the Time with Cavia porcellus [4] turned out to be 398 s.

Consider `O=c1c2ccccc2nc(-c2ccccc2)n1NCCNc1nccs1`, for which the Activity with Mus musculus [1] was determined as 7.43%; in the data set on Cavia porcellus [2], 72.12%; in the data set on Mus musculus [3], 8.21%; with Mus musculus [5], 9.85%; in the data set on Mus musculus [6], 9.52%. In the data set on Cavia porcellus [4], the Time was 409 s.

For the compound `Cc1ccccc1NCCNn1c(-c2ccccc2)nc2ccccc2c1=O`, the Activity with Mus musculus [1] turned out to be 7.13%; in the data set with Cavia porcellus [2] it was 69.6%; in the data set with Mus musculus [3], 9.42%; in the data set with Mus musculus [5], 10.38%; with Mus musculus [6], 9.88%. Besides, the Time with Cavia porcellus [4] was found to be 375 s.

Consider `COc1cccc(NCCNn2c(-c3ccccc3)nc3ccccc3c2=O)c1`, for which the Activity was determined as 9.32% in the data set with Mus musculus [1]; 70.15% in the data set with Cavia porcellus [2]; 10.35% in the data set with Mus musculus [3]; 11.63% in the data set with Mus musculus [5]; 10.89% in the data set with Mus musculus [6]. In the data set with Cavia porcellus [4], the Time was 382 s.

As to `O=c1c2ccccc2nc(-c2ccccc2)n1NCCNc1ccc([N+](=O)[O-])cc1`, the Activity was 8.32% with Mus musculus [1]; 71.06% in the data set on Cavia porcellus [2]; 9.51% with Mus musculus [3]; 11.04% with Mus musculus [5]; 9.98% in the data set with Mus musculus [6]. Further, in the data set with Cavia porcellus [4], the Time was 394 s.

With `CN(C)CCC(c1ccc(Cl)cc1)c1ccccn1.O=C(O)/C=C\C(=O)O` (stereo unspecified) [CHLORPHENIRAMINE MALEATE], the Activity in the data set with Mus musculus [1] worked out at 29.58%; in the data set with Cavia porcellus [8] it was 70.09%; in the data set with Mus musculus [3] it was 32.04%; in the data set on Mus musculus [5], 34.8%; in the data set on Mus musculus [6] it was 38.8%. In the data set on Cavia porcellus [7], the Time is reported as 394 s.
